Results taken from patent US11453640B2, “Small molecules for disrupting the super elongation complex and inhibiting transcription elongation for cancer therapy” (NORTHWESTERN UNIVERSITY, priority 2018, dated 2022).

Test system: H2171 and SW1271 cells
Test: CellTiter-Glo cell proliferation of small cell lung cancer cells
Assay type: cell-based, human
Conditions: 3 days, increasing concentrations
From the text: FIG. 6. SEC disruption targets MYC and MYC target genes. (A-B) Venn diagram of deregulated genes in 293T cells by KL-1 and KL-2. […] (C) Heat map showing the expression changes in response to SEC inhibitors, with differentially expressed canonical MYC targets, RNA splicing factors, and core SNRP assembly genes highlighted. […] Each cluster is represented by different colors and a circle node denotes each enriched term. (E) MA plots of RNA splicing and Hallmark MYC target genes in KL-2 treated, AFF1 and AFF4 co-depletion, and ELL2-depleted cells. […] The MYC genes, the PRMT5 gene, and genes encoding SEC components are denoted as red squares. (F) Western analysis of MYC protein levels in the MYC lowly expressed small cell lung cancer cell line […] and MYC-amplified small cell lung cancer cell line H2171. (G) Gained SEC occupancy at the MYC binding sites in MYC highly expressed H2171 cells. Genome browser tracks of MYC and SEC occupancy around the PRMT5 gene in SW1271 and H2171 cells are shown. (H) ChIP-seq analysis of MYC binding peaks in SW1271 and H2171 cells. […] The SEC and MYC peaks were determined by MACS with a p-value cutoff at 1E-5. […] Both cell lines were treated with increasing concentrations of KL-1 and KL-2 for 3 days and the cell proliferation was measured with CellTiter-Glo luminescent cell viability assay (Promega) (n=3-6).

SMILES: COc1cccc(C(=O)CC(=O)C(=O)Nc2cc(Cl)ccc2C)c1 [KL-1, N-(5-chloro-2-methylphenyl)-4-oxo-4-(3-methoxyphenyl)-2-oxobutanamide]
- sensitivity of high MYC expressing H2171 cells versus low MYC expressing SW1271 cells: more sensitive
